Tested on: human neutrophil adhesion to TNF-α-stimulated human umbilical vein endothelial cells (HUVEC)
Experiment: Modified method: inhibition of human neutrophil adhesion to TNF-α-stimulated human umbilical vein endothelial cells (calcein-labeled neutrophils)
Format: cell-based
Conditions: for inhibition at 33 µM / inhibition at 100 µM: neutrophils labeled with calcein, read-out: Adhesion ECA, % inhibition
Experimental: The 3-thiol, thioether, amino, alkylamino, or arylamino-benzo[b]thiophene-2-carboxamides and 3-alkoxy, aryloxy, thiol, thioether, amino, alkylamino, or arylamino-benzofuran-2-carboxamides have been shown in an in vitro assay to prevent the adhesion of neutrophils to human umbilical vein endothelial cells (HUVECS) stimulated with TNF-α. In this assay, HUVECS are stimulated with TNF-α for 4 hours, after which the cells are assayed for their ability to adhere to human neutrophils labeled with either ^51 Cr or calcein, a fluorescent dye. The details of this assay are described in the DETAILED DESCRIPTION.
Neutrophils were isolated from anticoagulant-treated venous blood obtained from healthy human volunteers according to the method of Ferrante and Thong [J. Immunol. Methods 24, 389-93 (1978)]. The cell preparations consisted of greater than 98% neutrophils.
Modified Method for Determining the Inhibition of Human Neutrophil Adhesion to TNF-α, IL-1α, and LPS Stimulated Human Umbilical Vein Endothelial Cells
The previous assay using ^51 Cr labeled human neutrophils has been modified. The neutrophils are now labeled with the fluorescent dye calcein. The current method allows for quantification of neutrophil adherence by fluorescence spectroscopy.
Second passage HUVEC (Clonetics Corporation, San Diego, Calif., CC-2617) were seeded into Coring (Corning glass works, Corning, N.Y.) 96-well cell culture plates at approximately 5×10^3 cells/well and grown to confluency in supplemented endothelial basal medium (EBM, MCDB-131, Clonetics, 10 ng/mL EGF, 1 μg/mL hydrocortisone, 0.4% bovine brain extract, 5% Fetal Bovine Serum). One day prior to running the assay, typically 3 days postseeding, the cultures were refed with 0.2 mL/well supplemented EBM (S-EBM).
Test compounds were prepared as 10 mL stock solutions at a concentration of 1.0 mM. The compounds were initially solubilized in 0.1 mL DMSO followed by the addition of 9.9 mL S-EBM. The drug preparations were then diluted in one step to a concentration of 66.6 μM or 200 μM. Solubilizations and dilutions were performed in polystyrene containers.
Recombinant human tumor necrosis factor-α (TNF, Genzyme, Boston, Mass., code TNF-H) was prepared at 400 U/mL in S-EBM. Stock TNF was prepared to 20,000 U/mL in Delbecco's phosphate-buffered saline (PBS, Gibco, Grand Island N.Y.) plus 0.1% BSA and stored at -70° C. HUVEC were washed one time with 0.2 mL warm unsupplemented EBM and then stimulated for 4hours at 37° C. with 200 U/mL TNF in the presence of 33.3 μM or 100 μM test compound. This was accomplished by adding 0.1 mL of 400 U/mL TNF and 0.1 mL 66.6 μM or 0.1 mL of 200 μM test compound. These additions were done slowly as to not disrupt the HUVEC monolayer. Each compound was tested in six wells. Unstimulated (vehicle control) and TNF-stimulated without test compound treatments were also run in each plate.
One hour prior to adding the neutrophils (isolated as previously described) to the HUVEC, neutrophils (5×10^6 /mL) were labeled for 30 minutes at 37° C. with 5 μM calcine-AM (Molecular Probes, Eugene, Oreg.) in Hanks' balanced salt solution plus 0.45% BSA. Stock calcein was prepared to 5mM in anhydrous DMSO and stored desiccated at -20° C. At the end of the incubation the cells were washed two times in cold HBSS and resuspended to a final concentration of 1×10^6 cells/mL in unsupplemented EBM.
At the end of the 4-hour stimulation and immediately prior to the addition of the neutrophils to the HUVEC monolayer, the plates were washed with 0.2 ml warm unsupplemented EBM to remove TNF and drug. Neutrophils (1×10^5 cells) were slowly added to each of the treated wells and incubated for 30 minutes at 37° C. At the end of the incubation the plates were washed two times with 0.2 mL warm unsupplemented EBM followed by a final addition of 0.1 mL for plate scanning.
The fluorescence was determined using a Millipore Cytofluor 2300 system (excitation=480, emission=530, sensitivity=4). […]

Row | SMILES | inhibition at 33 µM [%] | inhibition at 100 µM [%] | further results
1 | CN(C)c1c(C(N)=O)sc2cccc(Cl)c12 [Example 18, 4-Chloro-3-(dimethylamino)benzo[b]thiophene-2-carboxamide] | 10 |  | 
2 | COc1ccc2sc(C(=O)Nc3ccc(C(=O)O)cc3)c(SC(C)C)c2c1 [Example 8, 4-[[[5-Methoxy-3[(1-methylethyl)thio]benzo[b]thien-2yl]carbonyl]amino]benzoic acid] | 13 |  | 
3 | COc1ccc2sc(C(N)=O)c(SCCCCC(=O)O)c2c1 [Example 14] | 37 |  | 
4 | COC(=O)CCSc1c(C(N)=O)sc2ccc(OC)cc12 [Example 10, Methyl 3-[[2-(aminocarbonyl)-5-methoxybenzo[b]thien-3-yl]thio]propanoate] | 55 |  | 
5 | COc1ccc2oc(C(N)=O)c(OC(C)C)c2c1 [Example 27, 5-Methoxy-3-(1-methylethoxy)-2-benzofurancarboxamide] |  |  | IC50 (footnote a, neutrophil label not given, IC50 by linear regression from 33.3, 10.0, 3.3 and 1.0 μM, read-out: Adhesion ECA, IC50): 13 µM
6 | COc1ccc2sc(C(N)=O)c(S)c2c1 [Example 9, 3-Mercapto-5-methoxybenzo[b]thiophene-2-carboxamide] | 15 |  | 
7 | CC(C)Oc1c(C(N)=O)oc2ccccc12 [Example 29, 3-(1-Methylethoxy)-2-benzofurancarboxamide] |  | 20 | 
8 | CNc1c(C(N)=O)[s+]([O-])c2ccc(OC)cc12 (stereo not shown) [Example 22, 5-Methoxy-3-(methylamino)benzo[b]thiophene-2-carboxamide-1-oxide] |  | 16 | 
9 | CSc1ccc2sc(C(N)=O)c(N(C)C)c2c1 [Example 21, 3-Dimethylamino-5-(methylthio)benzo[b]thiophene-2-carboxamide] | 53 |  | 
10 | COc1cccc2sc(C(N)=O)c(N)c12 [Example 19, 3-Amino-4-methoxybenzo[b]thiophene-2-carboxamide] | 30 |  | 
11 | COc1cccc2sc(C(N)=O)c(N(C)C)c12 [Example 20, 3-(Dimethylamino)-4-methoxybenzo[b]thiophene-2carboxamide] | 63 |  | 
12 | CC(C)Oc1c(C(=O)NCc2ccccc2)oc2ccccc12 [Example 35, 3-(1-Methylethoxy)-N-(phenylmethyl)-2-benzofurancarboxamide] |  | 61 | 
13 | COc1ccc2sc(C(N)=O)c(SCCN3CCOCC3)c2c1 [Example 11, 5-Methoxy-3-[[2-(4-morpholinyl)ethyl]thio]benzo[b]thiophene-2-carboxamide] | 27 |  | 
14 | COc1ccc2sc(C(N)=O)c(S(=O)(=O)C(C)C)c2c1 [Example 3, 5-Methoxy-3-[(1-methylethyl)sulfonyl]benzo[b]thiophene-2-carboxamide] | 32 |  | 
15 | COC(=O)c1ccc(NC(=O)c2sc3ccc(OC)cc3c2SC(C)C)cc1 [Example 7, Methyl 4-[[[5-methoxy-3-[(1-methylethyl)thio]benzo[b]thien-2yl]carbonyl]amino]benzoate] | 19 |  | 
16 | COc1ccc2oc(C(N)=O)c(OCc3ccccc3)c2c1 [Example 36, 5-Methoxy-3-(phenylmethoxy)-2-benzofurancarboxamide] |  | 4 | 
17 | NC(=O)c1oc2ccccc2c1N [Example 25, 3-Amino-2-benzofurancarboxamide] | 21 |  | 

Row | SMILES | inhibition at 33 µM [%] | inhibition at 100 µM [%] | further results
18 | COc1ccc2sc(C(N)=O)c(SCc3ccccc3)c2c1 [Example 6, 5-Methoxy-3-[(phenylmethyl)thio]benzo[b]thiophene-2-carboxamide] | 35 |  | 
19 | COc1ccc2c(c1)c(NC(C)C)c(C(N)=O)[s+]2[O-] (stereo not shown) [Example 23, 5-Methoxy-3-[(1-methylethyl)amino]benzo[b]thiophene-2-carboxamide-1-oxide] |  | 7 | 
20 | CC(C)Oc1c(C(=O)NCc2ccccc2)oc2ccc(Cl)cc12 [Example 32, 5-Chloro-3-(1-methylethoxy)-N-(phenylmethyl)-2-benzofurancarboxamide] |  | 95 | 
21 | COc1ccc2sc(C(N)=O)c(SCC(=O)O)c2c1 [Example 15, [[2-(Aminocarbonyl)-5-methoxybenzo[b]thien-3-yl]thio]acetic acid] | 7 |  | 
22 | COc1ccc2oc(C(=O)NCc3ccccc3)c(OC(C)C)c2c1 [Example 30, 5-Methoxy-3-(1-methylethoxy)-N-(phenylmethyl)-2-benzofurancarboxamide] |  | 42 | 
23 | CC(C)Oc1c(C(N)=O)oc2ccc(Cl)cc12 [Example 28, 5-Chloro-3-(1-methylethoxy)-2-benzofurancarboxamide] |  | 52 | 
24 | COC(=O)CCCCSc1c(C(N)=O)sc2ccc(OC)cc12 [Example 13] | 21 |  | 
25 | COC(=O)c1ccc(CSc2c(C(N)=O)sc3ccc(OC)cc23)cc1 [Example 16, Methyl 4-[[[2-(aminocarbonyl)-5-methoxybenzo[b]thien-3-yl]thio]methyl]benzoate] | 10 |  | 
26 | CC(C)Oc1c(C(=O)Nc2ccccc2)oc2ccccc12 [Example 34, 3-(1-Methylethoxy)-N-phenyl-2-benzofurancarboxamide] |  | 70 | 
27 | CC(C)Sc1c(C(N)=O)sc2cccc(Cl)c12 [Example 12, 4-Chloro-3-[(1-methylethyl)thio]benzo[b]thiophene-2-carboxamide] | 34 |  | 
28 | NC(=O)c1oc2cccc(Cl)c2c1N [Example 26, 3-Amino-4-chloro-2-benzofurancarboxamide] | 24 |  | 
29 | CC(C)Sc1c(C(N)=O)sc2ccc(OCc3ccccc3)cc12 [Example 17, 3-[(1-Methylethyl)thio]-5-(phenylmethoxy)benzo[b]thiophene-2-carboxamide] | 24 |  | 
30 | COc1ccc2c(c1)c(Nc1ccccc1)c(C(N)=O)[s+]2[O-] (stereo not shown) [Example 24, 5-Methoxy-3-(phenylamino)benzo[b]thiophene-2-carboxamide-1-oxide] |  | 21 | 
31 | CC(C)Oc1c(C(N)=O)oc2ccc(O)cc12 [Example 38, 5-Hydroxy-3-(1-methylethoxy)-2-benzofurancarboxamide] | 67 |  | 
32 | CC(C)Oc1c(C(=O)Nc2ccccc2)oc2ccc(Cl)cc12 [Example 31, 5-Chloro-3-(1-methylethoxy)-N-phenyl-2-benzofurancarboxamide] |  | 11 | 
33 | CC(C)NC(=O)c1oc2ccccc2c1OC(C)C [Example 33, 3-(1-Methylethoxy)-N-(1-methylethyl)-2-benzofurancarboxamide] |  | 15 | 
34 | CC(C)Oc1c(C(N)=O)oc2ccc(-c3ccccc3)cc12 [Example 37, 3-(1-Methylethoxy)-5-phenyl-2-benzofurancarboxamide] |  | 68 | 

From patent publication US5350748A, “3-thio or amino substituted-benzo[b]thiophene-2-carboxamides and 3-oxygen, thio, or amino substituted-benzofuran-2-carboxamides as inhibitors of cell adhesion” (Warner-Lambert Company, priority 1993, dated 1994)
